# Experiments:
# Colon26 tumor cells = test: Colon26 tumor growth, combination with cyclophosphamide (Example 8); format: in vivo, Balb/c mice; conditions: anti-SEMA4D 50 mg/kg IP weekly; cyclophosphamide 50 mg/kg IP days 12 and 20; endpoint 1000 mm3
# Description: Experimental Design. 5×10^5 Colon26 tumor cells were implanted subcutaneously into the flank of female Balb/c mice. […] There were 20 mice per group. Tumors were measured with calipers 3×/week starting 5 days post implant. Animals were sacrificed when tumor volume reached 1000 mm3.
# Tumor growth was measured by calipers and measurements were used to calculate tumor volume using the formula (w^2×l)/2, where w=width, smaller measurement, and l=length, in mm, of the tumor.
# Regression is the lack of palpable tumor, defined by a tumor measuring <50 mm3 for at least two consecutive measurements.
# Colon26 = test: Summary of tumor regressions in Colon26 model (Example 13, FIG. 13); format: in vivo, mice; conditions: summary of experiments (FIG. 13)
# Description: Experimental Design. […] The experiment design of the respective experiments is summarized in the above Examples.
compound,measurement,setting,value
O=P1(N(CCCl)CCCl)NCCCO1 (centres unmarked) [cyclophosphamide],Tumor Growth Delay (TGD),Colon26 tumor cells,96%
same,tumor regression,Colon26,10%

# From US12070500B2, “Use of semaphorin-4D antibodies in combination with an immune modulating therapy to inhibit tumor growth and metastasis” (Vaccinex, Inc., priority 2013, dated 2024)
